Source: PubChem BioAssay (NCI)
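Exposure lasted 48 hours, with cells grown in 96-well plates and compounds tested at five concentrations. Abbreviation: GI50, concentration required for 50% inhibition of growth. The concentration for full growth arrest is given as TGI.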

Tests used:
Assay in all cases: growth of human tumour cells (NCI), 48 h
[1] = test system: TK-10 renal
[2] = test system: HOP-92 NSCLC
[3] = test system: K-562 leukemia
[4] = test system: HL-60(TB) leukemia
[5] = test system: SK-MEL-2 melanoma
[6] = test system: KM12 colon
[7] = test system: NCI-H226 lung

| SMILES | TGI [1] | TGI [2] | TGI [3] | TGI [4] | TGI [5] | TGI [6] | TGI [7] | GI50 [1] | GI50 [2] | GI50 [3] | GI50 [6] | GI50 [7] |
| --- | --- | --- | --- | --- | --- | --- | --- | --- | --- | --- | --- | --- |
| O=C1C=CC(=O)C2C1Cc1ccccc1C2c1ccccc1 (stereo unspecified) | > 100 µM | 85 µM | > 100 µM | 53.1 µM | 90.1 µM | > 100 µM | > 100 µM |  |  |  |  |  |
| O=S(=O)(c1ccccc1)c1nccs1 | > 100 µM |  | > 100 µM | > 100 µM | > 100 µM | > 100 µM | > 100 µM |  |  |  |  |  |
| COc1cccc2c1C(=O)c1c(O)c3c(c(O)c1C2=O)C[C@@](O)(C(C)=O)C[C@@H]3OC1CC([N+]([O-])(Cc2ccccc2)Cc2ccccc2)C(O)C(C)O1 (stereo partly specified) | 3.37 µM | 3.14 µM |  |  | 3.46 µM | 2.9 µM |  |  |  |  |  |  |
| C#CCN(N=O)C(=O)NCCCCC(NC(=O)OCc1ccccc1)C(=O)OCc1ccccc1 (stereo unspecified) | > 100 µM | 42.1 µM | 56.9 µM | > 100 µM | > 100 µM | > 100 µM | > 100 µM |  |  |  |  |  |
| CCC[CH2][Sn]([CH2]CCC)([CH2]CCC)[O]C(=O)C(OC(C)=O)c1ccccc1 (stereo unspecified) | 0.888 µM | 0.222 µM | 0.349 µM |  |  | 0.23 µM | 0.336 µM | 0.244 µM | 0.0409 µM | 0.109 µM | 0.109 µM | 0.178 µM |
| CC1(C)OC2CC3COC(=O)C3CC2O1 (stereo unspecified) | > 100 µM | > 100 µM | > 100 µM | > 100 µM | > 100 µM | > 100 µM | > 100 µM |  |  |  |  |  |
| CCOP(=O)(OCC)/C(C#N)=C\c1ccsc1 | > 100 µM | > 100 µM |  |  | > 100 µM | > 100 µM | > 100 µM |  |  |  |  |  |
| O=C(Nc1cc(Cl)ccc1Cl)c1cc2cccc(Br)c2oc1=O | > 100 µM |  | > 100 µM | > 100 µM | > 100 µM | > 100 µM | > 100 µM |  |  |  |  |  |
| CN(C)CCNC(=O)c1cccc2nc3ccc4cccnc4c3nc12 | 0.688 µM | 1.99 µM | 13.4 µM | 2.91 µM | 2.11 µM | 3.54 µM | 1.83 µM |  |  |  |  |  |
| COc1cc2c(c(O)c1C)C(=O)CC(c1ccccc1)O2 (stereo unspecified) | 77.3 µM | 40.8 µM | > 100 µM |  | 95.4 µM | > 100 µM | 41.5 µM |  |  |  |  |  |
| CC(N)Cc1ccc(Cl)cc1 (stereo unspecified) | > 100 µM | > 100 µM | > 100 µM | > 100 µM | > 100 µM | > 100 µM | > 100 µM |  |  |  |  |  |
| Cn1cnc([N+](=O)[O-])c1Sc1nnnn1C | 31.4 µM | 25.2 µM | 42.3 µM |  | 37.3 µM | > 100 µM | > 100 µM |  |  |  |  |  |
| COC1=CC(=O)C(Br)=CC1=O | 35.8 µM | 29.8 µM | 9.1 µM | 23.6 µM | 45.7 µM |  |  |  |  |  |  |  |
| COc1ccc2c3c(c(C(=O)O)oc13)CCC2 | > 100 µM | > 100 µM | > 100 µM | > 100 µM | > 100 µM | > 100 µM | 83 µM |  |  |  |  |  |
| CCCN(CCC)CCc1cc(C(C)=O)n(S(=O)(=O)c2ccc(C)cc2)c1 | > 100 µM | > 100 µM | > 100 µM |  | > 100 µM | > 100 µM | > 100 µM |  |  |  |  |  |
| CC(C)(CN1CCOCC1)C(=O)/C=C/c1ccc(/C=C/C(=O)C(C)(C)CN2CCOCC2)cc1 | 3.62 µM | 6.49 µM |  | 3.92 µM |  | 2.92 µM | 5.22 µM |  |  |  |  |  |
| Cc1cc(Br)cc(C)c1NC(=O)C(=O)C(C(=O)c1ccncc1)C1OC(=O)c2ccccc21 (stereo unspecified) | > 100 µM | > 100 µM | > 100 µM | > 100 µM |  | > 100 µM | > 100 µM |  |  |  |  |  |
| S=c1nc(C(c2ccccc2)c2ccccc2)[nH][nH]1 | > 100 µM |  | > 100 µM | > 100 µM | > 100 µM | > 100 µM | > 100 µM |  |  |  |  |  |
| CSC(=Nc1ccccc1Cl)NC(=O)c1ccc(Br)cc1 | > 100 µM |  | 45 µM | > 100 µM | > 100 µM | > 100 µM | > 100 µM |  |  |  |  |  |
| CCO/C(CCn1[nH]c(=O)c(Cl)c(Cl)c1=O)=N\NC(=O)C(=O)NN | > 100 µM |  | > 100 µM | > 100 µM | > 100 µM | > 100 µM | > 100 µM |  |  |  |  |  |
| Cc1cc(C)nc(NS(=O)(=O)c2ccc(Nc3c4ccccc4nc4c(C(=O)Nc5ccc(S(=O)(=O)Nc6cc(C)on6)cc5)ccc(Cl)c34)cc2)n1 | > 100 µM |  | > 100 µM |  |  | 37.1 µM |  |  |  |  |  |  |
| O=C1NC(=O)C(=Cc2c3ccccc3cc3ccccc23)C(=O)N1 | > 100 µM | > 100 µM | > 100 µM | > 100 µM |  |  |  |  |  |  |  |  |
| Cc1ccc(NC(=O)C(=O)C(C(=O)c2ccc3ccccc3c2)C2OC(=O)c3ccccc32)c(C)c1 (stereo unspecified) | 42.9 µM | 27.8 µM | > 100 µM |  | 26.8 µM | 45.5 µM | 15.8 µM |  |  |  |  |  |
| CC(C)=O.O=C([O-])C(F)(F)F.O=C([O-])C(F)(F)F.O=C([O-])C(F)(F)F.O=C([O-])C(F)(F)F.[Rh+2].[Rh+2] | > 100 µM |  | > 100 µM |  |  | > 100 µM | > 100 µM | 81.4 µM |  | 31.8 µM | > 100 µM | > 100 µM |
